Test results as given in ChEMBL document CHEMBL1201862, “PubChem BioAssay data set” (2004).
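Test compounds were applied to cells in 96-well plates for 48 hours at 5 doses. GI50 = concentration required for 50% inhibition of growth.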 Calls of active or inactive are those of the source. Rule as the data show it: active = GI50 up to about 1.1 µM and inactive = higher.

What was measured:
Assay in all cases: inhibition of tumour cell growth, NCI panel, 48 h
Hs-578T = system: Hs-578T
DLD-1 = system: DLD-1
KM-20L2 = system: KM-20L2
LXFL 529 = system: LXFL 529
XF498 = system: XF498
DMS-273 = system: DMS-273
HOP-18 = system: HOP-18
SNB-78 = system: SNB-78
RXF 631 = system: RXF 631

SMILES	GI50 (Hs-578T)	GI50 (KM-20L2)	GI50 (LXFL 529)	also measured
CCOP(=O)(OCC)/C(=C/n1c(=S)[nH]c2ccccc21)C(=O)OC	95.1 µM (inactive)	–	–	–
COc1cc(/C=C2/C(=O)N(C(=O)c3ccccc3O)N=C2C)ccc1O	0.272 µM (active)	18.5 µM (inactive)	0.0515 µM (active)	GI50 (DLD-1): 0.0603 µM (active); GI50 (XF498): 0.0723 µM (active)
CSc1ccc(/C=C2\CN(C)C/C(=C\c3ccc(SC)cc3)C2=O)cc1	–	32.1 µM (inactive)	5.22 µM (inactive)	GI50 (DLD-1): 11.5 µM (inactive); GI50 (DMS-273): 14.1 µM (inactive); GI50 (HOP-18): > 100 µM (inactive); GI50 (SNB-78): 19.8 µM (inactive); GI50 (XF498): 18.9 µM (inactive)
Cc1nnc(N)nc1/C=C\c1ccc(N(C)C)cc1	5.82 µM (inactive)	–	–	–
COc1cc(C2CC(C)(Nc3ccccc3)Oc3cc4c(cc32)OCO4)cc(OC)c1OC (stereo not given)	0.105 µM (active)	–	–	–
CN1C(=O)c2ccc3ccccc3c2C1=O	73.1 µM (inactive)	–	–	–
CCOC(=O)c1cccc(/N=N/c2ncc(/C=C/C(=O)OC)[nH]2)c1	39.9 µM (inactive)	–	–	–
CCOP(=O)(Nc1ccc(-c2ccccc2)cc1)OCC	> 100 µM (inactive)	–	–	–
CCOC(=O)c1nc2c3c(ncn2n1)Oc1c(c(-c2ccccc2)nn1-c1ccccc1)C3c1ccc(OC)c(OC)c1 (stereo not given)	12.4 µM (inactive)	–	–	–
COC(=O)C(=O)CC(=O)c1cccc(OC)c1	> 100 µM (inactive)	–	–	–
CN(CCN(C)C(=O)CCn1ccc(=O)[nH]c1=O)C(=O)CCn1ccc(=O)[nH]c1=O	–	> 100 µM (inactive)	> 100 µM (inactive)	GI50 (DMS-273): > 100 µM (inactive); GI50 (SNB-78): > 100 µM (inactive); GI50 (XF498): > 100 µM (inactive)
CCOC(=O)C1=C(C(=O)c2ccc(C)cc2)C(c2cccc([N+](=O)[O-])c2)C(C(=O)c2ccc(C)cc2)=C(C(=O)OCC)N1	22 µM (inactive)	–	–	–
O=C(/C=N/O)Nc1ccc(Cl)c(I)c1	–	33 µM (inactive)	12.9 µM (inactive)	GI50 (DLD-1): 27.1 µM (inactive); GI50 (DMS-273): 18.4 µM (inactive); GI50 (XF498): 21.6 µM (inactive)
COC(=O)C1C2C=CC(C2)N1[C@@H](C)c1ccccc1 (stereo not given in full)	–	> 100 µM (inactive)	> 100 µM (inactive)	GI50 (DLD-1): > 100 µM (inactive); GI50 (DMS-273): > 100 µM (inactive); GI50 (HOP-18): > 100 µM (inactive); GI50 (SNB-78): > 100 µM (inactive)
O=C(CC1(O)C(=O)Nc2ccc([N+](=O)[O-])cc21)c1ccc2ccccc2c1 (stereo not given)	–	> 100 µM (inactive)	> 100 µM (inactive)	GI50 (DLD-1): > 100 µM (inactive); GI50 (DMS-273): > 100 µM (inactive); GI50 (RXF 631): > 100 µM (inactive); GI50 (SNB-78): > 100 µM (inactive)
COC(=O)c1ccccc1C1CN=NC12Cc1cccc(C)c1C2=O (stereo not given)	40.4 µM (inactive)	–	–	–
O=C1OC(c2ccccc2)=N/C1=C/NC(Cc1ccc(O)cc1)C(=O)O (stereo not given)	–	> 100 µM (inactive)	> 100 µM (inactive)	GI50 (DLD-1): > 100 µM (inactive); GI50 (DMS-273): > 100 µM (inactive); GI50 (HOP-18): 36.1 µM (inactive); GI50 (SNB-78): > 100 µM (inactive); GI50 (XF498): > 100 µM (inactive)

SMILES	GI50 (Hs-578T)	GI50 (KM-20L2)	GI50 (LXFL 529)	also measured
Cc1ccc(S(=O)(=O)N2CCSCCSCCSCCN(S(=O)(=O)c3ccc(C)cc3)CC2)cc1	> 100 µM (inactive)	–	–	–
Cc1csc2nc3c(cnn3C)c(=S)n12	12.8 µM (inactive)	–	–	–
COc1cc(OC)c2ssc3c(OC)cc(OC)c4ssc1c2-c43	–	> 100 µM (inactive)	> 100 µM (inactive)	GI50 (DLD-1): > 100 µM (inactive); GI50 (DMS-273): > 100 µM (inactive); GI50 (HOP-18): > 100 µM (inactive); GI50 (SNB-78): > 100 µM (inactive); GI50 (XF498): > 100 µM (inactive)
CSC1(SC)CCCCCCCCCCC1	43.1 µM (inactive)	–	–	–
CC(=O)N/C(=C\c1ccc(/C=C(\NC(C)=O)c2nc3cc(Cl)ccc3[nH]2)cc1)c1nc2ccccc2[nH]1	–	> 100 µM (inactive)	> 100 µM (inactive)	GI50 (DLD-1): > 100 µM (inactive); GI50 (DMS-273): > 100 µM (inactive); GI50 (RXF 631): > 100 µM (inactive); GI50 (SNB-78): > 100 µM (inactive); GI50 (XF498): > 100 µM (inactive)
N#C/C(=C1\SC(/N=N/c2ccccc2)C(=O)N1c1ccccc1)c1nc2ccccc2[nH]1 (stereo not given)	–	> 100 µM (inactive)	> 100 µM (inactive)	GI50 (DLD-1): > 100 µM (inactive); GI50 (DMS-273): 45.7 µM (inactive); GI50 (SNB-78): > 100 µM (inactive); GI50 (XF498): 17.7 µM (inactive)
CC(C)(C)C1CCC2c3c([nH]c4ccccc34)C3C(=O)N(c4ccccc4[N+](=O)[O-])C(=O)C3C2C1 (stereo not given)	14.4 µM (inactive)	–	–	–
Cc1coc2c1C(OC(=O)C(C)C)C1(C)C(C)CCC(O)C1C2=O (stereo not given)	> 100 µM (inactive)	–	–	–
CC1=NN2CCC(=O)N=C2S1	> 100 µM (inactive)	–	–	–
C=CCc1cccc2cc(C(=O)NCc3ccccc3)c(=N)oc12	18.8 µM (inactive)	–	–	–
Fc1ccc(F)c(C2SCc3nc4ccccc4n32)c1 (stereo not given)	–	> 100 µM (inactive)	53.3 µM (inactive)	GI50 (DLD-1): > 100 µM (inactive); GI50 (DMS-273): 20.5 µM (inactive); GI50 (HOP-18): 89.1 µM (inactive); GI50 (SNB-78): 52.5 µM (inactive)
Oc1ccc(-c2ccccc2)nn1	> 100 µM (inactive)	–	–	–
CC(C)[C@@H]1NC(=O)[C@@H]2N=C(O[C@H]2C)[C@H](C(C)C)NC(=O)C2N=C1O[C@H]2C	> 100 µM (inactive)	–	–	–
O=C(NCc1ccccc1)c1cc2ccccc2o/c1=N\c1ccccc1F	32.1 µM (inactive)	–	–	–
O=c1c2ccccc2c2c1c1c3ccccc3c(=O)c1c1c3ccccc3c(=O)c21	> 100 µM (inactive)	–	–	–
O=c1[nH]c2cc(C(F)(F)F)ccc2nc1Cc1ccccc1	34.9 µM (inactive)	–	–	–
CCCCC/C(C=O)=C\c1ccccc1	> 100 µM (inactive)	–	–	–
